The subject of the assay is endogenous cellular STAT1 (phosphorylated at Tyr701) in NCI-H1373 cells. Kind of assay: Phospho-STAT1 (Tyr701) LANCE Ultra TR-FRET Detection Assay. The assay is classed as cell-based. As to conditions: Homo sapiens, NCI-H1373, 48 h, phospho-STAT1 (Tyr701) induction, read-out: NH1373 pSTAT1 EC50.
The EC50 is the concentration at which the effect is half-maximal. For the compound `Cc1nc(-c2cc3ccn(CCC[C@H](C)Nc4cn[nH]c(=O)c4C(F)(F)F)c(=O)c3cc2F)nc(N)c1C(F)(F)F` [Example 327, (S)-6-(4-amino-6-methyl-5-(trifluoromethyl)pyrimidin-2-yl)-7-fluoro-2-(4-((6-oxo-5-(trifluoromethyl)-1,6-dihydropyridazin-4-yl)amino)pentyl)isoquinolin-1(2H)-one], the EC50 was found to be 3.05 nM.
For `CCOc1cnc(-c2cc3ccn(CCC[C@H](C)Nc4cn[nH]c(=O)c4C(F)(F)F)c(=O)c3cc2F)nc1N` [Example 192, (S)-6-(4-amino-5-ethoxypyrimidin-2-yl)-7-fluoro-2-(4-((6-oxo-5-(trifluoromethyl)-1,6-dihydropyridazin-4-yl)amino)pentyl)isoquinolin-1(2H)-one] the value was 2.24 nM; for `C#C[C@H](CCCn1ccc2cc(-c3ncc(C(F)(F)F)cn3)c(F)cc2c1=O)Nc1cn[nH]c(=O)c1C(F)(F)F` [Example 171, 7-fluoro-2-[(4S)-4-[[6-oxo-5-(trifluoromethyl)-1H-pyridazin-4-yl]amino]hex-5-ynyl]-6-[5-(trifluoromethyl)pyrimidin-2-yl]isoquinolin-1-one], 257 nM; for `Nc1nc(-c2cc3ccn(CCC[C@H](CCOC(F)F)Nc4cn[nH]c(=O)c4C(F)(F)F)c(=O)c3cc2F)ncc1C(F)(F)F` [Example 467, 6-[4-amino-5-(trifluoromethyl)pyrimidin-2-yl]-2-[(4R)-6-(difluoromethoxy)-4-[[6-oxo-5-(trifluoromethyl)-1H-pyridazin-4-yl]amino]hexyl]-7-fluoro-isoquinolin-1-one], 4.13 nM.
For `C[C@@H](CCCn1cnc2cc(-c3ncc(C4CC4)c(N)n3)c(F)cc2c1=O)Nc1cn[nH]c(=O)c1C(F)(F)F` [Example 65, 7-(4-amino-5-cyclopropyl-pyrimidin-2-yl)-6-fluoro-3-[(4S)-4-[[6-oxo-5-(trifluoromethyl)-1H-pyridazin-4-yl]amino]pentyl]quinazolin-4-one] the value was 29.2 nM; for `Cc1nnc([C@@H](CCCn2ccc3cc(-c4ncc(C(F)(F)F)cn4)c(F)cc3c2=O)Nc2cn[nH]c(=O)c2C(F)(F)F)o1` [Example 169, 7-fluoro-2-[(4R)-4-(5-methyl-1,3,4-oxadiazol-2-yl)-4-[[6-oxo-5-(trifluoromethyl)-1H-pyridazin-4-yl]amino]butyl]-6-[5-(trifluoromethyl)pyrimidin-2-yl]isoquinolin-1-one], 61.9 nM; for `O=c1[nH]ncc(N[C@H]2CCCC[C@H]2CCn2ccc3cc(-c4ncc(C(F)(F)F)cn4)c(F)cc3c2=O)c1C(F)(F)F` (racemic) [Example 436, (rac)-7-fluoro-2-(2-((1S,2S)-2-((6-oxo-5-(trifluoromethyl)-1,6-dihydropyridazin-4-yl)amino)cyclohexyl)ethyl)-6-(5-(trifluoromethyl)pyrimidin-2-yl)isoquinolin-1(2H)-one], 443 nM.
For `Cc1cnc(-c2cc3ncn(CCC[C@H](C)Nc4cn[nH]c(=O)c4C(F)(F)F)c(=O)c3cc2F)nc1N` [Example 78, (S)-7-(4-amino-5-methylpyrimidin-2-yl)-6-fluoro-3-(4-((6-oxo-5-(trifluoromethyl)-1,6-dihydropyridazin-4-yl)amino)pentyl)quinazolin-4(3H)-one] the value was 317 nM; for `[2H][C@@](C)(CCCn1ccc2cc(-c3ncc(C(F)(F)F)cn3)c(F)c(F)c2c1=O)Nc1cn[nH]c(=O)c1C(F)(F)F` (single isomer, unassigned) [Example 86], 9.21 nM; for `Nc1nc(-c2cc3ncn(CCC[C@H](COC(F)F)Nc4cn[nH]c(=O)c4C(F)(F)F)c(=O)c3cc2F)ncc1C(F)(F)F` [Example 385, (R)-7-(4-amino-5-(trifluoromethyl)pyrimidin-2-yl)-3-(5-(difluoromethoxy)-4-((6-oxo-5-(trifluoromethyl)-1,6-dihydropyridazin-4-yl)amino)pentyl)-6-fluoroquinazolin-4(3H)-one], 13.3 nM.
Regarding `Nc1nc(-c2cc3ncn(CCC[C@H](COC(F)F)Nc4cn[nH]c(=O)c4C(F)(F)F)c(=O)c3cc2F)nc(C2CC2)c1Cl` [Example 414, (R)-7-(4-amino-5-chloro-6-cyclopropylpyrimidin-2-yl)-3-(5-(difluoromethoxy)-4-((6-oxo-5-(trifluoromethyl)-1,6-dihydropyridazin-4-yl)amino)pentyl)-6-fluoroquinazolin-4(3H)-one], the EC50 is 10.9 nM.
For `CC[C@@H](CCCn1cnc2cc(-c3ncc(Cl)c(N)n3)c(F)cc2c1=O)Nc1cn[nH]c(=O)c1C(F)(F)F` [Example 342, (S)-7-(4-amino-5-chloropyrimidin-2-yl)-6-fluoro-3-(4-((6-oxo-5-(trifluoromethyl)-1,6-dihydropyridazin-4-yl)amino)hexyl)quinazolin-4(3H)-one] the value was 9.84 nM; for `Nc1nc(-c2cc3ncn(CCC[C@@H](Nc4cn[nH]c(=O)c4C(F)(F)F)C4CC4)c(=O)c3cc2F)ncc1C(F)F` [Example 462, (R)-7-(4-amino-5-(difluoromethyl)pyrimidin-2-yl)-3-(4-cyclopropyl-4-((6-oxo-5-(trifluoromethyl)-1,6-dihydropyridazin-4-yl)amino)butyl)-6-fluoroquinazolin-4(3H)-one], 27.6 nM.
With `O=c1[nH]ncc(O[C@H]2CCC[C@@H](Cn3cnc4cc(-c5ncc(C(F)F)cn5)c(F)cc4c3=O)C2)c1C(F)(F)F` [Example 457, 7-(5-(difluoromethyl)pyrimidin-2-yl)-6-fluoro-3-(((1R,3S)-3-((6-oxo-5-(trifluoromethyl)-1,6-dihydropyridazin-4-yl)oxy)cyclohexyl)methyl)quinazolin-4(3H)-one], the EC50 turned out to be 10.6 nM.
The same measure for `CNc1cnc(-c2cc3ccn(C[C@@H]4CCC[C@H](Nc5cn[nH]c(=O)c5C(F)(F)F)C4)c(=O)c3cc2F)cn1` [Example 274, 7-fluoro-6-(5-(methylamino)pyrazin-2-yl)-2-(((1R,3S)-3-((6-oxo-5-(trifluoromethyl)-1,6-dihydropyridazin-4-yl)amino)cyclohexyl)methyl)isoquinolin-1(2H)-one]: 78 nM; for `C[C@@H](CCCn1ccc2cc(-c3ccc(C#N)c(C(F)(F)F)n3)c(F)cc2c1=O)Nc1cn[nH]c(=O)c1C(F)(F)F` [Example 295, (S)-6-(7-fluoro-1-oxo-2-(4-((6-oxo-5-(trifluoromethyl)-1,6-dihydropyridazin-4-yl)amino)pentyl)-1,2-dihydroisoquinolin-6-yl)-2-(trifluoromethyl)nicotinonitrile]: 2020 nM.
For `CC#C[C@@H](CCCn1ccc2cc(-c3ncc(C(F)(F)F)cn3)c(F)c(F)c2c1=O)Nc1cn[nH]c(=O)c1C(F)(F)F` [Example 161, 7,8-difluoro-2-[(4R)-4-[[6-oxo-5-(trifluoromethyl)-1H-pyridazin-4-yl]amino]hept-5-ynyl]-6-[5-(trifluoromethyl)pyrimidin-2-yl]isoquinolin-1-one] the value was 28.7 nM.
The same measure for `C#C[C@@H](CCCn1ccc2cc(-c3ncc(C(F)(F)F)cn3)c(F)cc2c1=O)Nc1cn[nH]c(=O)c1C(F)(F)F` [Example 170, 7-fluoro-2-[(4R)-4-[[6-oxo-5-(trifluoromethyl)-1H-pyridazin-4-yl]amino]hex-5-ynyl]-6-[5-(trifluoromethyl)pyrimidin-2-yl]isoquinolin-1-one]: 195 nM; for `Nc1cn(C[C@@H]2CCC[C@H](Nc3cn[nH]c(=O)c3C(F)(F)F)C2)c(=O)c2cc(F)c(-c3ncc(C(F)(F)F)cn3)cc12` [Example 486, 4-amino-7-fluoro-2-(((1R,3S)-3-((6-oxo-5-(trifluoromethyl)-1,6-dihydropyridazin-4-yl)amino)cyclohexyl)methyl)-6-(5-(trifluoromethyl)pyrimidin-2-yl)isoquinolin-1(2H)-one]: 95.8 nM.
On to `C[C@@H](CCCn1ccc2cc(-c3ncc(N4CC5(COC5)C4)cn3)c(F)cc2c1=O)Nc1cn[nH]c(=O)c1C(F)(F)F` [Example 99, (S)-6-(5-(2-oxa-6-azaspiro[3.3]heptan-6-yl)pyrimidin-2-yl)-7-fluoro-2-(4-((6-oxo-5-(trifluoromethyl)-1,6-dihydropyridazin-4-yl)amino)pentyl)isoquinolin-1(2H)-one], for which the EC50 stood at 1280 nM.
For `CC[C@@H](CCCn1ccc2cc(-c3ncc(C(F)F)c(N)n3)c(F)cc2c1=O)Nc1cn[nH]c(=O)c1C(F)(F)F` [Example 297, (S)-6-(4-amino-5-(difluoromethyl)pyrimidin-2-yl)-7-fluoro-2-(4-((6-oxo-5-(trifluoromethyl)-1,6-dihydropyridazin-4-yl)amino)hexyl)isoquinolin-1(2H)-one] the value was 3.71 nM; for `Nc1nc(-c2cc3ccn(C[C@@H]4CCC[C@H](Nc5cn[nH]c(=O)c5C(F)(F)F)C4)c(=O)c3c(F)c2F)ncc1OC(F)F` [Example 245, 6-(4-amino-5-(difluoromethoxy)pyrimidin-2-yl)-7,8-difluoro-2-(((1R,3S)-3-((6-oxo-5-(trifluoromethyl)-1,6-dihydropyridazin-4-yl)amino)cyclohexyl)methyl)isoquinolin-1(2H)-one], 8.13 nM; for `COc1cnc(-c2cc3ccn(CCC[C@@H]4CCCN4c4cn[nH]c(=O)c4C(F)(F)F)c(=O)c3cc2F)nc1N` [Example 122, (S)-6-(4-amino-5-methoxypyrimidin-2-yl)-7-fluoro-2-(3-(1-(6-oxo-5-(trifluoromethyl)-1,6-dihydropyridazin-4-yl)pyrrolidin-2-yl)propyl)isoquinolin-1(2H)-one], 8.04 nM.
The same measure for `Cc1cnc(N)nc1-c1cc2ccn(CCC[C@H](C)Nc3cn[nH]c(=O)c3C(F)(F)F)c(=O)c2c(F)c1F` [Example 80, (S)-6-(2-amino-5-methylpyrimidin-4-yl)-7,8-difluoro-2-(4-((6-oxo-5-(trifluoromethyl)-1,6-dihydropyridazin-4-yl)amino)pentyl)isoquinolin-1(2H)-one]: 479 nM; for `C[C@@H](CCCn1ccc2cc(-c3ccc4ncsc4n3)c(F)cc2c1=O)Nc1cn[nH]c(=O)c1C(F)(F)F` [Example 333, (S)-7-fluoro-2-(4-((6-oxo-5-(trifluoromethyl)-1,6-dihydropyridazin-4-yl)amino)pentyl)-6-(thiazolo[5,4-b]pyridin-5-yl)isoquinolin-1(2H)-one]: 503 nM.
